# System: Escherichia coli
# Test: Antibacterial activity against Escherichia coli MG1655 assessed as inhibition of bacterial growth
# Format: functional
smiles,measurement,value
COc1ccc(-c2c(-c3ccc(C)s3)[nH]c3[nH]c(=O)[nH]c(=O)c23)cc1,MIC,16 µg/mL

# — ChEMBL document CHEMBL5375950, “Chemical genetic approaches for the discovery of bacterial cell wall inhibitors” (2023)
